# “Also recorded” adds a separate entry of the source. Read-outs that look alike come from different tables or passages of the source.
# Experiments:
# Type in all cases: cell-based, human
# [1] = system: cluster 1-like/CD64^Hi,PD-L1^Hi cDCs; assay: Acquisition of the CD64Hi,PD-L1Hi cDC phenotype in elite controller cells exposed to virus with inhibitory drugs (flow cytometry)
# [2] = system: cluster 1-like/CD64^Hi,PD-L1^Hi cDCs
# [3] = system: cluster 1-like/CD64^Hi,PD-L1^Hi cDCs; assay: Induction of CD64Hi,PD-L1Hi cDCs in PBMCs incubated with TLR3 agonist and nanoparticle-encapsulated HIV-1 Gag DNA, without live virus; details: PBMCs from healthy (HIV-negative) individuals; 2 μg/ml Poly I:C and/or polymer nanoparticles loaded with 100 nucleotide HIV-1 Gag DNA; no live virus
# Description: PBMC or isolated cDCs were stained with LIVE/DEAD cell blue viability dye (Invitrogen, Carlsbad, Calif.) and monoclonal antibodies directed against CD11c (Biolegend), CD14 (BD), HLA-DR, CD64, PDL-1, ICAM1, CD16, SLAMF8 (Biolegend) and subsequently analyzed on a Fortessa cytometer (BD Biosciences, San Jose, Calif.). For intracellular cytokine staining, cells were treated with a commercial fixation/permeabilization kit (BioLegend) according to the manufacturer's protocol. Data were analyzed with FlowJo software (Tree Star). cDCs were identified from bulk PBMCs as a population of viable CD14^− lymphocytes expressing high levels of CD11c and HLA-DR.
# Finally, Applicants explored how Applicants might further exploit this TBK1-dependent innate immune sensing pathway to boost the fraction of cDCs acquiring the cluster 1 phenotype without exposure to live virus. For this purpose, Applicants incubated PBMCs from healthy individuals or ECs simultaneously with a TLR3 agonist (Poly(I:C)) and single- or double-stranded HIV-1 Gag DNA (ssDNA or dsDNA, respectively) encapsulated in polymeric nanoparticles. […]
molecule,measurement,setting,value
O=C(NCCCNc1nc(Nc2cccc(NC(=O)N3CCCC3)c2)ncc1I)c1cccs1 [BX795],"induction of the cluster 1-like/CD64^Hi,PD-L1^Hi population","[1]; EC PBMCs, 1 μM BX795 added at the time of viral addition, p=0.0020, Wilcoxon signed-rank test",dramatic and significant abrogation
O=C(N[C@H](Cc1ccccc1)C(=O)O)c1sc2cc(F)ccc2c1Cl [TLR3 inhibitor],"acquisition of the cluster 1/CD64^Hi,PD-L1^Hi cDC phenotype","[1]; elite controllers (ECs), virus plus TLR3 or TLR4 antagonist vs DMSO, p=0.0^2, Wilcoxon matched-pairs signed-rank test","modest, but significant, effect"
Poly(I:C),proportion of CD64^Hi PDL1^Hi cells among cDCs,[2],significantly induce
same,"proportion of cluster 1-like/CD64^Hi,PD-L1^Hi cDCs",[2]; 24 hours,significantly induce; also recorded: induced a larger population; also recorded: significant increase
same,"proportion of cluster 1-like/CD64^Hi,PD-L1^Hi cDCs",[3],insufficient

# From patent US20190144942A1, “METHODS FOR IDENTIFYING AND MODULATING IMMUNE PHENOTYPES” (priority 2016, published 2019)
